Measured values from patent publication US10342796B2, “Acrylanilide derivative, preparation method, and applications thereof in pharmacy” (Ancureall Pharmaceutical (Shanghai) Co., Ltd., priority 2015, dated 2019).
Read-outs that look alike come from different tables or passages of the source.

Experiments:
[1] = test system: N87 (HER2 Amp); assay: Growth inhibition GI50 in vitro (CCK8/MTT, 72 h); assay type: cell-based, human; conditions: Homo sapiens
[2] = test system: Calu-3 (Her2 amp); assay: Growth inhibition GI50 in vitro (CCK8/MTT, 72 h); assay type: cell-based; conditions: Homo sapiens, Calu-3; Table 16; 1000 nM to 0.03 nM serial dilution; read-out: GI50 Calu3 (HER2 amp)
Description: (§1) Human lung adenocarcinoma cell line Calu-3 (ATCC) was cultured with 1×MEM complete medium (10% FBS, 1% double-antibiotics, 1% NEAA (Gibco), 2 mM glutamine and 1 mM of sodium pyruvate). Human breast cancer cell line SK-BR-3 was cultured with McCOY'S5A complete medium (10% FBS). Human colon cancer cell line SNU1040 (HER2 V777M positive) (ATCC) and human bronchoalveolar adenocarcinoma cell line NCI-H1781 (expressing HER2 exon 20 G776VC mutation) (ATCC) were cultured with 1×RPMI1640 complete medium (10% FBS), respectively.
(§2) The suspension cells were collected by centrifugation. The supernatant was discard and the cell pellet was resuspended and counted. Different cell concentrations (5˜10×10^4 cells/mL) were prepared according to the growth cycle of each cell line and then seeded on a 96-well plate (Corning), 100 μL/well. The cells were incubated over night at 37° C., 5% CO2. The compounds were added to the cells on the second day with 2 wells in parallel. The final concentration of organic solvent shall not exceed 1%. The cells were continually incubated for 72 h, and then subjected to MTT assay.
(§3) The present compounds and the reference compounds were dissolved with DMSO (Sigma), respectively. […] The storage concentration of compounds was 10 mM and kept at −20° C. They were diluted by 2 times or 10 times with serial dilution before using.
(§4) Dojindo CCK8 reagent kit was used as MTT assay. […] FC meter was used as microplate reader.
(§5) Adherent cell culture medium was discard and immediately replaced with fresh prepared medium which contains 10% CCK8 reagent (100 μL/well). For the suspension cells, CCK8 was directly added to 10% of the final concentration. The cells were continually incubated for 1˜4 h. When the color of control wells turned to dark yellow, the absorption value was measured at OD450 nm. The cell growth rate was calculated according to the following formula: cell growth rate (%)=100*(T−T0)/(C−T0), T=optical density of drug treatment cell well—optical density of blank control well; T0=optical density of cell well before drug treatment—optical density of blank control well; C=optical density of cell well of solvent control group—optical density of blank control well. […] The experiment was independently repeated 1˜3 times, and subject to biological statistical analysis.

[3] = test system: NCI-H1781 (HER2 exon 20 G776VC mutation); assay: Growth inhibition GI50 in vitro (CCK8/MTT, 72 h); assay type: cell-based; conditions: Homo sapiens, NCI-H1781; Table 16; 1000 nM to 0.03 nM serial dilution; read-out: GI50 H1781 (HER2 G776VC)
Description: as §1
as §2, with “Adherent cells were digested with 0.25% pancreatin-EDTA (Gibco). The suspension” for “The suspension”
as §3, §4
(§6) Adherent cell culture medium was discard and immediately replaced with fresh prepared medium which contains 10% CCK8 reagent (100 μL/well). For the suspension cells, CCK8 was directly added to 10% of the final concentration. The cells were continually incubated for 1˜4 h. When the color of control wells turned to dark yellow, the absorption value was measured at OD450 nm. The cell growth rate was calculated according to the following formula: cell growth rate (%)=100*(T−T0)/(C−T0), T=optical density of drug treatment cell well—optical density of blank control well; T0=optical density of cell well before drug treatment—optical density of blank control well; C=optical density of cell well of solvent control group—optical density of blank control well. The concentration value of 50% inhibition of cell growth (GI50) was calculated. The experiment was independently repeated 1˜3 times, and subject to biological statistical analysis.
(§7) Furthermore, the present compounds (99, 136, 205, 211, 212, 213, 216, 229, 230, 231, 232, 233 and 236) were selected to carry out growth inhibition test for HER2/ERBB2 gene amplified or high expressed or mutant tumor cells. Afatinib and AZD9291 were used for references as second- and third-generation inhibitors of EGFR.
(§8) Each compound started at 1000 nM as an initial concentration and was diluted by 2 times with serial dilution to 0.03 nM. The GI50 value of each compound was calculated according to Test Example 1.3.

[4] = test system: SNU1040 (HER2 V777M positive); assay: Growth inhibition GI50 in vitro (CCK8/MTT, 72 h); assay type: cell-based; conditions: Homo sapiens; Table 16; 1000 nM to 0.03 nM serial dilution; read-out: GI50 SNU-1040 (HER2 V777M)
Description: as §1
as §2, with “Adherent cells were digested with 0.25% pancreatin-EDTA (Gibco). The suspension” for “The suspension”
as §3, §4, §6, §7, §8

[5] = test system: HER2/ErbB2 amplified cell line N87; assay: In vivo tumor growth inhibition, xenograft; design: species or system Bab/c nude mice; conditions: Mus musculus, po, 456 h, 25 mg/kg intragastric once daily, day 19, read-out: TGI (%)
From the text: Tumor xenograft models of immunodeficient mice are an effective tool to test the antitumor activity of the compound in vivo. Generally, the effectiveness of human tumor cell xenograft is positively correlated with the clinical treatment of human tumor. Bab/c immunodeficient mouse is one of the most commonly used xenograft animals with human tumor cells. In order to test whether the present compounds can inhibit the in vivo growth of the tumor cells expressing EGFR mutantion or HER2/ErbB2 overexpression, H1975, PC-9 and NCI-N87 cell lines were used in the experiments. When H1975, PC-9 and NCI-N87 cells were in growth logarithmic phase, they were digested with pancreatin. An appropriate amount of 1×RPMI1640 culture medium (serum-free) was added to stop digestion. The cells were collected to a 50 ml centrifuge tube (Corning), and centrifuged at 1700 rm for 3 min. The supernatant was discard, then the cells were suspended with 1×RPMI1640 culture medium and count the number. […] cells/mL was prepared and then placed on ice. 5˜10×10^6 (0.2 ml) cells were inoculated subcutaneously on the right side of the back of 6˜8 week old female Bab/c nude mice (about 20 g in weight). When the tumor average volume growed to 100˜200 mm^3, the mice were randomly divide into groups (3-6 mice per group), and marked by ear pierced tags and weighted. The test compounds and the reference compound (with a purity over 99% and individual impurity not higher than 0.2%) were formulated to emulsion suspension with CM (30% polyethylene glycol 400, 0.5% Tween-80 and 2.5% propylene glycol) respectively. Intragastric administration was continued once daily at a dosage of 25 mg/kg (0.1 ml/10 g mouse). The tumor was measured 3 times per week. When the average volume of the tumor in CM control group was up to 1500 mm^3 or after administration for 30 days, the experiment was ended.
The volume of tumor (V) was calculated as V=½*a*b^2 (a represents length of tumors, b represents width of tumors). Tumor growth inhibition (TGI) was calculated as: TGI (%)=100−(VT−VT0)/(VC−VC0)*100%; where VT0 and VT are the tumor volumes of the beginning and finish days of dosed groups; and VC0 and VC are the tumor volumes of the beginning and finish days for the control group, respectively.

[6] = test system: H1975 (EGFR L858R/T790M); assay: Growth inhibition GI50 in vitro (CCK8/MTT, 72 h); assay type: cell-based, human; conditions: Homo sapiens, NCI-H1975
[7] = test system: PC-9 (EGFR dE746-A750); assay: Growth inhibition GI50 in vitro (CCK8/MTT, 72 h); assay type: cell-based, human; conditions: Homo sapiens
[8] = test system: SW48 (EGFR G719S positive); assay: Growth inhibition GI50 in vitro (CCK8/MTT, 72 h); assay type: cell-based; conditions: Homo sapiens, SW48; Table 15; 1000 nM to 0.03 nM serial dilution; read-out: GI50 SW48 (EGFR G719S)
Description: PC-9ER is an acquired Erlotinib resistance cell line of PC-9 cells developed by the investor. […] The four cell lines above were cultured with 1×RPMI1640 complete medium (supplement with 10% FBS). Human colon cancer cell line SW48 (EGFR G719S positive, ATCC). was cultured with L15 complete medium (10% FB S).
as §2, §3, §4, §5
Each compound started at 1000 nM as an initial concentration and was diluted by […] with serial dilution to 0.03 nM.

[9] = test system: H292 (EGFR WT); assay: Growth inhibition GI50 in vitro (CCK8/MTT, 72 h); assay type: cell-based; conditions: Homo sapiens, NCI-H292; Table 15; 1000 nM to 0.03 nM serial dilution; read-out: GI50 H292 (EGFR WT)
From the text: EGFR wild type cell lines: human epidermal cancer cell line A431 (EGFR WT, amplification and high expression, from Shanghai Cell Bank of Chinese Academy of Sciences and ATCC), NSCLC cell lines NCI-H460 (EGFR WT, Kras G61H and PI3KCA E545K mutants, ATCC) and NCI-H1299 (EGFR WT, ATCC), melanoma cell line A375 (EGFR WT and BRAF V600E mutant, from Shanghai Cell Bank of Chinese Academy of Sciences, ATCC), human lung cancer cell line NCI-H292 (EGFR WT, from human lung mucoepidermoid carcinoma/lymphatic metastasis, purchased from Shanghai Cell Bank of Chinese Academy of Sciences) were cultured with 1×RPMI1640 complete medium which was supplement with 10% FBS. NSCLC cell line A549 (EGFR WT and Kras G12S mutant, from Shanghai Cell Bank of Chinese Academy of Sciences) was cultured with 1×Ham'S F12K complete medium which was supplement with 10% FBS, 1% double-antibiotics and 2 mM glutamine.
as §2, §3, §4, §5

[10] = test system: A549 (EGFR WT); assay: Growth inhibition GI50 in vitro (CCK8/MTT, 72 h); assay type: cell-based, human; conditions: Homo sapiens, A549
[11] = Table 16, 1000 nM to 0.03 nM serial dilution, read-out: GI50 N87 (HER2 amp)
[12] = Table 13, 72 h, read-out: Range of GI50 H1975 (EGFR L858R/T790M)
[13] = Table 15, 1000 nM to 0.03 nM serial dilution, read-out: GI50 H1975 (EGFR L858R/T790M)
[14] = Table 13, 72 h, read-out: Range of GI50 PC-9 (EGFR dE746-A750)
[15] = Table 15, 1000 nM to 0.03 nM serial dilution, read-out: GI50 PC-9 (EGFR dE746-A750)
[16] = Table 13, 72 h, read-out: Range of GI50 N87 (HER2 Amp)
[17] = Table 13, 72 h, read-out: Range of GI50 A549 (EGFR WT)
[18] = Table 15, 1000 nM to 0.03 nM serial dilution, read-out: GI50 A549 (EGFR WT)

| SMILES | GI50 [2] | GI50 [3] | GI50 [4] | GI50 [6, 12] | GI50 [6, 13] | GI50 [7, 14] | GI50 [7, 15] | GI50 [8] | GI50 [9] | GI50 [10, 17] | GI50 [10, 18] | GI50 [1, 11] | inhibition in vivo at 25 mg/kg [5] | GI50 [1, 16] |
| --- | --- | --- | --- | --- | --- | --- | --- | --- | --- | --- | --- | --- | --- | --- |
| CN(C)C/C=C/C(=O)Nc1cc2c(Nc3ccc(F)c(Cl)c3)ncnc2cc1O[C@H]1CCOC1 [Afatinib, reference compound] | 2.62 nM | 1.17 nM | 79.1 nM | – | – | – | – | – | – | – | – | 1.25 nM | 98.3% | – |
| C=CC(=O)Nc1cc(Nc2cc(Nc3cc(F)cc(C(F)(F)F)c3)ncn2)c(OC)cc1N(C)CCN(C)C [Compound 230, N-(5-(6-(5-fluoro-3-trifluoromethyl-phenylamino)-pyrimidin-4-yl-amino)-2-((2-dimethylamino-ethyl)-methyl-amino)-4-methoxyl-phenyl)-acrylamide] | 2.67 nM | 1.91 nM | 13.2 nM | 10 to 100 nM | 19 nM | < 10 nM | 0.37 nM | 5.87 nM | > 1000 nM | > 1000 nM | > 1000 nM | 3.9 nM | – | < 10 nM |
| C=CC(=O)Nc1cc(Nc2cc(Nc3cc(C(F)(F)F)ccc3F)ncn2)c(OC)cc1N(C)CCN(C)C [Compound 231, N-(5-(6-(2-fluoro-5-trifluoromethyl-phenylamino)-pyrimidin-4-yl-amino)-2-((2-dimethylamino-ethyl)-methyl-amino)-4-methoxyl-phenyl)-acrylamide] | 5.6 nM | 1.79 nM | 6.75 nM | 10 to 100 nM | 19.5 nM | < 10 nM | 0.19 nM | 3.13 nM | > 1000 nM | > 1000 nM | > 1000 nM | 4.21 nM | – | < 10 nM |

Molecules with a lower GI50 [2], results first:

| GI50 [2] | GI50 [3] | GI50 [4] | GI50 [6, 12] | GI50 [6, 13] | GI50 [7, 14] | GI50 [7, 15] | GI50 [8] | GI50 [9] | GI50 [10, 17] | GI50 [10, 18] | SMILES | GI50 [1, 11] | inhibition in vivo at 25 mg/kg [5] | GI50 [1, 16] |
| --- | --- | --- | --- | --- | --- | --- | --- | --- | --- | --- | --- | --- | --- | --- |
| 2.49 nM | 1.02 nM | 6.82 nM | 10 to 100 nM | 16.9 nM | < 10 nM | 2.43 nM | 4.87 nM | > 1000 nM | > 1000 nM | > 1000 nM | C=CC(=O)Nc1cc(Nc2cc(Nc3cc(OC)cc(C(F)(F)F)c3)ncn2)c(OC)cc1N(C)CCN(C)C [Compound 232, N-(5-(6-(3-methoxyl-5-trifluoromethyl-phenylamino)-pyrimidin-4-yl-amino)-2-((2-dimethylamino-ethyl)-methyl-amino)-4-methoxyl-phenyl)-acrylamide] | 1.92 nM | – | < 10 nM |
| 1.26 nM | 0.95 nM | 10.3 nM | 10 to 100 nM | 19.1 nM | < 10 nM | 0.98 nM | 4.92 nM | > 1000 nM | > 1000 nM | > 1000 nM | C=CC(=O)Nc1cc(Nc2cc(Nc3cccc(C#N)c3)ncn2)c(OC)cc1N(C)CCN(C)C [Compound 229, N-(5-(6-(3-cyano-phenylamino)-pyrimidin-4-yl-amino)-2-((2-dimethylamino-ethyl)-methyl-amino)-4-methoxyl-phenyl)-acrylamide] | 1.95 nM | – | < 10 nM |
